Data taken from patent US11104657B2, “Notch inhibitors for use in the treatment of t-cell acute lymphoblastic leukemia” (UNIVERSITÀ DEGLI STUDI DI ROMA “LA SAPIENZA”, priority 2016, dated 2021).
Like-named read-outs stand apart in the source and are kept apart here.

How the values were obtained:
[1] = tested on: KOPTK1 cells; test: MTS cell proliferation assay, KOPTK1; type: cell-based; details: Homo sapiens
Experimental: (§1) The cell lines DND41 (ACC 525, DSMZ, Braunschweig, GERMANY), KOPTK1 (RRID: CVCL_4965) were maintained in culture in RPMI-1640 (Gibco, Carlsbad, Calif., USA) with 10% fetal bovine serum. TALL-1 cells (ACC-521: DSMZ, Braunschweig, GERMANY) were cultured in RPMI-1640 (Gibco, Carlsbad, Calif., USA) supplemented with 20% fetal bovine serum, while HaCaT cells (ACC-771: DSMZ, Braunschweig, GERMANY) were maintained in Eagle's culture medium according to Dulbecco (Gibco, Carlsbad, Calif., USA) containing 10% fetal bovine serum. Cells were treated with the naturally-occurring compounds A-H or with compounds 1-17 for times and concentrations indicated in the text. […]
(§2) All treatments were carried out in triplicate, including control treatments. […] To quantify vitality, cells were assayed by the MTS CellTiter 96® AQueous One Solution Cell Proliferation Assay (G3580; Promega, Madison, Wis., USA). Absorbance was detected at 490 nm using the GloMax Multidetection System instrument (Promega, Madison, Wis., USA). Data were collected in the form of absorbance units (ABSs) and standardized to obtain the proliferation rate (MTS) through the equation: % cell proliferation=(ABScell culture+compound−ABSculture medium+compound/(ABScell culture+DMSO−ABSculture medium+DMSO)×100. […]

[2] = tested on: HaCaT keratinocytes; test: MTS cell proliferation assay, HaCaT keratinocytes; type: cell-based; details: Homo sapiens; immortalized non-tumor HaCaT keratinocytes
Experimental: as §1, §2

[3] = tested on: TALL-1 cells; test: MTS cell proliferation assay, TALL-1; type: cell-based; details: Homo sapiens
Experimental: as §1, §2

[4] = tested on: activated domain of Notch1 in HaCaT cells; test: Western blot of N1VAL expression in HaCaT cells; type: cell-based; details: 36 hours
Experimental: Laemmli Sample Buffer (161-0737; Bio-Rad Laboratories Inc., Hercules, Calif., USA) was added to each cell pellet. Cells were lysed by ultrasonic sonication and to each mixture 5% 2-mercaptoethanol (161-0710; Bio-Rad Laboratories Inc., Hercules, Calif., USA) was added. Samples were denatured at 100° C. for 5 min and protein mixtures were separated by means of Sodium Dodecyl Sulphate-Polyacrylamide Gel Electrophoresis using 8% acrylamide and transferred onto nitrocellulose membranes. After transfer, the membranes pre-saturated in 5% Blot Dry Fat Milk (1706404; Bio-Rad Laboratories Inc., Hercules, Calif., USA) were incubated for 16 hours at +4° C. with the following primary antibodies diluted at 1:1000 in 5% Dry Fat Milk (1706404; Bio-Rad Laboratories Inc., Hercules, Calif., USA): Notch1Val1744 (2421; Cell Signaling Technology, Beverly, Mass., USA), Notch3 (2889; Cell Signaling Technology, Beverly, Mass., USA) and β-actin (sc-47778; Santa Cruz Biotechnology, Santa Cruz, Calif., USA). Subsequently, filters were incubated for 1 hour at room temperature with the following secondary antibodies: anti-rabbit (sc-2004, Santa Cruz Biotechnology, Santa Cruz, Calif., USA) or anti-mouse (sc-2005, Santa Cruz Biotechnology, Santa Cruz, Calif., USA). […]

[5] = tested on: DND41 cells; test: MTS cell proliferation assay (IG50), DND41; type: cell-based, human; details: for IC50: Homo sapiens
Experimental: In order to evaluate the biological implications of the compounds, their effect on cell proliferation/vitality was tested by determining the relative concentrations of growth inhibition (IG50) by means of the MTS cellular assay.
The cell lines DND41 (ACC 525, DSMZ, Braunschweig, GERMANY), KOPTK1 (RRID: CVCL_4965) were maintained in culture in RPMI-1640 (Gibco, Carlsbad, Calif., USA) with 10% fetal bovine serum. TALL-1 cells (ACC-521: DSMZ, Braunschweig, GERMANY) were cultured in RPMI-1640 (Gibco, Carlsbad, Calif., USA) supplemented with 20% fetal bovine serum, while HaCaT cells (ACC-771: DSMZ, Braunschweig, GERMANY) were maintained in Eagle's culture medium according to Dulbecco (Gibco, Carlsbad, Calif., USA) containing 10% fetal bovine serum. Cells were treated with the naturally-occurring compounds A-H or with compounds 1-17 for times and concentrations indicated in the text.
Cells were seeded in 96-well plates with a density of 5×10^5 cells/ml (5×10^4 cells per well) and treated for the times and the concentrations of the various compounds, as indicated in the text.
All treatments were carried out in triplicate, including control treatments. All treatment reactions contained a final concentration of 1% DMSO (D5879; Sigma-Aldrich, St Louis, Mo., USA). To quantify vitality, cells were assayed by the MTS CellTiter 96® AQueous One Solution Cell Proliferation Assay (G3580; Promega, Madison, Wis., USA). Absorbance was detected at 490 nm using the GloMax Multidetection System instrument (Promega, Madison, Wis., USA). Data were collected in the form of absorbance units (ABSs) and standardized to obtain the proliferation rate (MTS) through the equation: % cell proliferation=(ABScell culture+compound−ABSculture medium+compound/(ABScell culture+DMSO−ABSculture medium+DMSO)×100.
The 50% inhibition concentration was calculated using the GraphPad Prism software program (GraphPad Software Inc., La Jolla, Calif., USA).

[6] = tested on: Notch signaling (N1VAL, N3ICD) in DND41 cells; test: Western blot of N1VAL and N3ICD expression in DND41 cells; type: cell-based, human; details: DND41 cells, 36 hours, 0-50 μM, Western blot
Experimental: In order to identify new naturally-occurring molecular agents able to modulate Notch signaling, the effects on protein expression of the activated domain of Notch1 (N1VAL), and of the intracellular domain of Notch3 (N3ICD), were evaluated in DND41 cells through
Western blotting assays, following treatment for 36 hours with increasing concentrations (0, 1, 5, 10, 20, 50 μM) of the eight molecules (A-H) previously selected. Functional biochemical screening was performed on T-ALL DND41 cells because they are notoriously sensitive to the block of Notch signaling, and characterized by the constitutive and ligand-independent activation of the Notch1 pathway and by the high expression of Notch3. This makes this cell line a useful experimental model for screening putative Notch inhibitors.
In order to investigate the activity and selectivity of action of the 12 synthetic derivatives of butein, and following the screening scheme described in the first design phase, the efficacy of these molecules was analyzed by verifying the effects of 36 hours of treatment at increasing doses on the activation of Notch signaling and on the proliferation in DND41 cells.
Laemmli Sample Buffer (161-0737; Bio-Rad Laboratories Inc., Hercules, Calif., USA) was added to each cell pellet. Cells were lysed by ultrasonic sonication and to each mixture 5% 2-mercaptoethanol (161-0710; Bio-Rad Laboratories Inc., Hercules, Calif., USA) was added. Samples were denatured at 100° C. for 5 min and protein mixtures were separated by means of Sodium Dodecyl Sulphate-Polyacrylamide Gel Electrophoresis using 8% acrylamide and transferred onto nitrocellulose membranes. After transfer, the membranes pre-saturated in 5% Blot Dry Fat Milk (1706404; Bio-Rad Laboratories Inc., Hercules, Calif., USA) were incubated for 16 hours at +4° C. with the following primary antibodies diluted at 1:1000 in 5% Dry Fat Milk (1706404; Bio-Rad Laboratories Inc., Hercules, Calif., USA): Notch1Val1744 (2421; Cell Signaling Technology, Beverly, Mass., USA), Notch3 (2889; Cell Signaling Technology, Beverly, Mass., USA) and β-actin (sc-47778; Santa Cruz Biotechnology, Santa Cruz, Calif., USA). Subsequently, filters were incubated for 1 hour at room temperature with the following secondary antibodies: anti-rabbit (sc-2004, Santa Cruz Biotechnology, Santa Cruz, Calif., USA) or anti-mouse (sc-2005, Santa Cruz Biotechnology, Santa Cruz, Calif., USA). Chemiluminescence signal detection was performed using the ECL Advanced Detection System substrate (RPN2135; E Healthcare UK Limited, Buckinghamshire, UK).

Structure (SMILES) | IC50 [1] [nM] | IC50 [2] [nM] | IC50 [3] [nM] | concentration from which expression of the activated domain of Notch1 is significantly reduced [4] [µM] | IC50 ([5]; 36-hour treatments in DND41 cells, mean of triplicate experiments ± S.D., Table 2, read-out: IG50 ± S.D.) [nM] | IC50 ([5]; DND41 cells, MTS assay, 36 hours of treatment, read-out: IG50 (growth inhibition)) [nM] | effect on the expression of N1VAL [6] | effect on cell proliferation ([5]; DND41 cells, doses of up to 50 μM) | IC50 ([5]; DND41, 36 h, read-out: IG50 S.D.) [nM]
COc1ccc(C(=O)/C=C/c2ccc(O)cc2)c(O)c1 [Compound 8, 2′,4-dihydroxy-4′-methoxychalcone] | 910 ± 60 | 48600 ± 8060 | 290 ± 20 | ≥ 2.5 | 1920 ± 1040 | 1920 | – | – | –
CC(=O)C1=C(O)[C@]2(C)C(=CC1=O)Oc1c(C(C)=O)c(O)c(C)c(O)c12 [Compound G, 2,6-diacetyl-7,9-dihydroxy-8,9b-dimethyldibenzofuran-1,3-dione, reference compound] | – | – | – | – | – | – | did not significantly modulate | do not significantly affect cell proliferation | > 50000
